# How the values were obtained:
# Format in all cases: in vivo
# SD mice = assay: Anaphylaxis reaction caused by C48/80: mortality; settings: pantoprazole 10 mg/kg tail vein 30 minutes before C48/80 10 mg/kg tail vein; survival for one hour
# Experimental: SD mice weighing 200-220 g were divided into three groups consisting of a negative control group, a positive control group and a test group, each group consisting of eight animals.
# 30 minutes after this pretreatment, the negative control group was injected with a phosphate buffer saline through the tail vein, the positive control group and the test group were injected with 10 mg/kg of C48/80 through the tail vein. After the injection, the number of individuals died of anaphylaxis reaction caused by C48/80 was observed. The standard of death and survival was determined by whether or not the animals survive for one hour after C48/80 administration.
# BALBc male mice [1] = assay: Ovalbumin-induced allergic rhinitis: eosinophil number in nasal mucosa (histology); settings: under mucosa of anterior inferior turbinate, 400× magnification
# Experimental: 3-week-old BALBc male mice weighing 15-25 g were divided into four groups each comprising 6 or 7 animals, and then bred in a specific pathogen-free (SPF) environment for 35 days. In order to induce allergic rhinitis, 10 μg of ovalbumin (grade V, Sigma Chemical Co., Phillipsberg, N.Y.) and 1 mg of aluminum hydroxide (Al(OH)3) gel were mixed with 0.3 ml phosphate buffered saline for at least 30 minutes to prepare an ovalbumin mixture. 0.1 ml of the mixture was injected into the abdominal cavity of the mice, and each at 5, 14 and 21 days later, injected once more into the abdominal cavity. At one week after the final injection into the abdominal cavity (28 days later), 30 μl phosphate buffered saline or a mixture of 100 μg ovalbumin with 30 μl phosphate buffered saline was administered into the nasal cavity using a micropipette. […] The administration of ovalalbumin into the nasal cavity and the pretreatment with the drugs before this administration were performed for 7 days, one time a day, and the next day after the administration for 7 days, the mice of all the groups was euthanized by inhalation with carbonic acid gas. […] The measured results were statistically analyzed by the Mann-Whitney U-test, using SPSS for Windows version 10 (SPSS Inc., Chicago), and were determined to be statistically significant at p<0.05.
# BALBc male mice [2] = assay: Ovalbumin-induced allergic rhinitis: symptom score; settings: 7 days, sneezing and nose scratching counted for 15 minutes
# Experimental: 3-week-old BALBc male mice weighing 15-25 g were divided into four groups each comprising 6 or 7 animals, and then bred in a specific pathogen-free (SPF) environment for 35 days. In order to induce allergic rhinitis, 10 μg of ovalbumin (grade V, Sigma Chemical Co., Phillipsberg, N.Y.) and 1 mg of aluminum hydroxide (Al(OH)3) gel were mixed with 0.3 ml phosphate buffered saline for at least 30 minutes to prepare an ovalbumin mixture. 0.1 ml of the mixture was injected into the abdominal cavity of the mice, and each at 5, 14 and 21 days later, injected once more into the abdominal cavity. At one week after the final injection into the abdominal cavity (28 days later), 30 μl phosphate buffered saline or a mixture of 100 μg ovalbumin with 30 μl phosphate buffered saline was administered into the nasal cavity using a micropipette. […] Then, in each mouse, the number of expression of characteristic symptoms of allergic rhinitis, i.e., the number of expression of symptoms, such as sneezing and the action of scratching the nose, was measured for 15 minutes after a given period, and their sum was recorded as a symptom score. The symptom score was recorded as the mean of scores measured by two observers, and scores having at least 30% difference between the two observers were excluded.
structure (smiles),measurement,setting,value
"COc1ccnc(C[S+]([O-])c2nc3ccc(OC(F)F)cc3[nH]2)c1OC (centres unmarked) [Inventive composition, pantoprazole]",Mortality (number of dead individuals/number of total individuals),SD mice,4/8
same,"eosinophil number (row printed as Symptom score), Mean",BALBc male mice [1]; pantoprazole 10 mg/kg,5.57
same,"eosinophil number (row printed as Symptom score), Mean",BALBc male mice [1]; pantoprazole 100 mg/kg,4.29
same,"Symptom score, Mean",BALBc male mice [2]; pantoprazole 10 mg/kg into abdominal cavity 30 minutes before nasal ovalbumin,27.29
same,"Symptom score, Mean",BALBc male mice [2]; pantoprazole 100 mg/kg into abdominal cavity 30 minutes before nasal ovalbumin,48.00

# Source: patent US20050239844A1, “Composition fo preventing secretion of immunoglobulin e-dependent histamine releasing factor” (KYUNG-LIM LEE, priority 2002, published 2005)
